In patent publication US10392368B2, “Pyrazolo and triazolo bicyclic compounds as JAK kinase inhibitors” (THERAVANCE BIOPHARMA R&D IP, LLC, priority 2017, dated 2019):
Read-outs that look alike come from different tables or passages of the source.

Tests used:
[1] = system: IL-2 stimulated pSTAT5 in Tall-1 T cells; assay: Cellular JAK3 potency assay: inhibition of IL-2 stimulated pSTAT5 in Tall-1 T cells; format: cell-based, human; conditions: for IC50: Homo sapiens, read-out: Tall-1 (pIC50) (converted)
Method in brief: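 Inhibition of IL-2-induced pSTAT5 was quantified by AlphaLisa in Tall-1 cell lysates. Compound exposure lasted 1 h before 30 min stimulation with 300 ng/ml IL-2 final.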

Tyk2 = target: T1, Tyk2 (Homo sapiens, UniProt P29597); assay: Biochemical Tyk2 kinase assay (LanthaScreen)
T1 construct: GST; purchased Life Technologies
Experimental: (§1) A panel of four LanthaScreen JAK biochemical assays (JAK1, 2, 3 and Tyk2) were carried in a common kinase reaction buffer (50 mM HEPES, pH 7.5, 0.01% Brij-35, 10 mM MgCl2, and 1 mM EGTA). Recombinant GST-tagged JAK enzymes and a GFP-tagged STAT1 peptide substrate were obtained from Life Technologies.
(§2) Serially or discretely diluted compounds were pre-incubated with each of the four JAK enzymes and the substrate in white 384-well microplates (Corning) at ambient temperature for 1 h. ATP was subsequently added to initiate the kinase reactions in 10 μL total volume, with 1% DMSO. […] Kinase reactions were allowed to proceed for 1 hour at ambient temperature before a 10 μL preparation of EDTA (10 mM final concentration) and Tb-anti-pSTAT1 (pTyr701) antibody (Life Technologies, 2 nM final concentration) in TR-FRET dilution buffer (Life Technologies) was added. The plates were allowed to incubate at ambient temperature for 1 h before being read on the EnVision reader (Perkin Elmer). Emission ratio signals (520 nm/495 nm) were recorded and utilized to calculate the percent inhibition values based on DMSO and background controls.
(§3) For dose-response analysis, percent inhibition data were plotted vs. compound concentrations, and IC50 values were determined from a 4-parameter robust fit model with the Prism software (GraphPad Software). Results were expressed as pIC50 (negative logarithm of IC50) and subsequently converted to pKi (negative logarithm of dissociation constant, Ki) using the Cheng-Prusoff equation.

JAK2 = target: T2, JAK2 (Homo sapiens, UniProt O60674); assay: Biochemical JAK2 kinase assay (LanthaScreen)
T2 construct: GST; purchased Life Technologies
Experimental: as §1
as §2, with “Elmer).” for “Elmer). Emission ratio signals (520 nm/495 nm) were recorded and utilized to calculate the percent inhibition values based on DMSO and background controls.”
as §3

JAK1 = target: T3, JAK1 (Homo sapiens, UniProt P23458); assay: Biochemical JAK1 kinase assay (LanthaScreen); conditions: for Ki: read-out: JAK 1 (pKi) (converted)
T3 construct: GST; purchased Life Technologies
Method in brief: (§4)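 GST-JAK + GFP-STAT1 peptide + cpd, 1 h preinc RT; ATP start, 1% DMSO, 1 h RT; stop 10 mM EDTA + 2 nM Tb-anti-pSTAT1; 1 h; TR-FRET 520/495. % inhib vs DMSO/background → IC50 (4-PL) → pKi (Cheng-Prusoff).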

JAK3 = target: T4, JAK3 (Homo sapiens, UniProt P52333); assay: Biochemical JAK3 kinase assay (LanthaScreen); set-up: GST; purchased Life Technologies; conditions: for Ki: read-out: JAK 3 (pKi) (converted)
T4 sequence (P52333 1-1124): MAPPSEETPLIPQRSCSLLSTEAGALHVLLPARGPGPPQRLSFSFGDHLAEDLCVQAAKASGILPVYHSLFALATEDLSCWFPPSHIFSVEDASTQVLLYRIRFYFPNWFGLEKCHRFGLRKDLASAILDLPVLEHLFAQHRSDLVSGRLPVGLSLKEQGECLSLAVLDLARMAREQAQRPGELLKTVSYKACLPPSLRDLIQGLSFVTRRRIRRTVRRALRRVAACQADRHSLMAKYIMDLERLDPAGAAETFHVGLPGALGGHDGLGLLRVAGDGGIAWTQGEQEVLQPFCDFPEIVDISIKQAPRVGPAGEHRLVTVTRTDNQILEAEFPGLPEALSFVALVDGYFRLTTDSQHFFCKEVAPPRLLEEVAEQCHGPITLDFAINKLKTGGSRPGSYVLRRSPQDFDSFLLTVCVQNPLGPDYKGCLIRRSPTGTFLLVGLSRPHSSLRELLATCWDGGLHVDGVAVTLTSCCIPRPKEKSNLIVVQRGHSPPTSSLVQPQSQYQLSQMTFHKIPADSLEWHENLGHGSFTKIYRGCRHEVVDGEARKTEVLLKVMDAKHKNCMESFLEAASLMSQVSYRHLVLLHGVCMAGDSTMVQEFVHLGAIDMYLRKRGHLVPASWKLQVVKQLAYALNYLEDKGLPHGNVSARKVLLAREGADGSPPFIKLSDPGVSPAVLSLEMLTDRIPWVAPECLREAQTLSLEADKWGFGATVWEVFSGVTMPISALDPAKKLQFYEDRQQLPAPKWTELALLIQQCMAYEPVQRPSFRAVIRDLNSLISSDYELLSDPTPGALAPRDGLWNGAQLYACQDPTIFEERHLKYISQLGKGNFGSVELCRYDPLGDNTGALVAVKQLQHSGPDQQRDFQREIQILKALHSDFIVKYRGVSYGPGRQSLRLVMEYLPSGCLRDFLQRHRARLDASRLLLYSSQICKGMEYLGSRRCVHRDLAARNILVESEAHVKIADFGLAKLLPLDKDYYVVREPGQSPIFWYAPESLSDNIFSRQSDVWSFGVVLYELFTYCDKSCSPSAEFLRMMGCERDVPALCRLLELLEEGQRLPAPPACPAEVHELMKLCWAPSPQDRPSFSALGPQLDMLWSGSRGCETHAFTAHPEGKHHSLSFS
Method in brief: as §4

[2] = IL-2 stimulated pSTAT5, Tall-1 T cells
[3] = selectivity JAK3 over JAK1, difference of pKi
[4] = IL-2 stimulated pSTAT5 in Tall-1 T cells
[5] = selectivity: difference of pKi JAK3 and pKi JAK1
[6] = TALL-1, IL-2 stimulated pSTAT5, Tall-1 T cells

T1 sequence (P29597 whole entry): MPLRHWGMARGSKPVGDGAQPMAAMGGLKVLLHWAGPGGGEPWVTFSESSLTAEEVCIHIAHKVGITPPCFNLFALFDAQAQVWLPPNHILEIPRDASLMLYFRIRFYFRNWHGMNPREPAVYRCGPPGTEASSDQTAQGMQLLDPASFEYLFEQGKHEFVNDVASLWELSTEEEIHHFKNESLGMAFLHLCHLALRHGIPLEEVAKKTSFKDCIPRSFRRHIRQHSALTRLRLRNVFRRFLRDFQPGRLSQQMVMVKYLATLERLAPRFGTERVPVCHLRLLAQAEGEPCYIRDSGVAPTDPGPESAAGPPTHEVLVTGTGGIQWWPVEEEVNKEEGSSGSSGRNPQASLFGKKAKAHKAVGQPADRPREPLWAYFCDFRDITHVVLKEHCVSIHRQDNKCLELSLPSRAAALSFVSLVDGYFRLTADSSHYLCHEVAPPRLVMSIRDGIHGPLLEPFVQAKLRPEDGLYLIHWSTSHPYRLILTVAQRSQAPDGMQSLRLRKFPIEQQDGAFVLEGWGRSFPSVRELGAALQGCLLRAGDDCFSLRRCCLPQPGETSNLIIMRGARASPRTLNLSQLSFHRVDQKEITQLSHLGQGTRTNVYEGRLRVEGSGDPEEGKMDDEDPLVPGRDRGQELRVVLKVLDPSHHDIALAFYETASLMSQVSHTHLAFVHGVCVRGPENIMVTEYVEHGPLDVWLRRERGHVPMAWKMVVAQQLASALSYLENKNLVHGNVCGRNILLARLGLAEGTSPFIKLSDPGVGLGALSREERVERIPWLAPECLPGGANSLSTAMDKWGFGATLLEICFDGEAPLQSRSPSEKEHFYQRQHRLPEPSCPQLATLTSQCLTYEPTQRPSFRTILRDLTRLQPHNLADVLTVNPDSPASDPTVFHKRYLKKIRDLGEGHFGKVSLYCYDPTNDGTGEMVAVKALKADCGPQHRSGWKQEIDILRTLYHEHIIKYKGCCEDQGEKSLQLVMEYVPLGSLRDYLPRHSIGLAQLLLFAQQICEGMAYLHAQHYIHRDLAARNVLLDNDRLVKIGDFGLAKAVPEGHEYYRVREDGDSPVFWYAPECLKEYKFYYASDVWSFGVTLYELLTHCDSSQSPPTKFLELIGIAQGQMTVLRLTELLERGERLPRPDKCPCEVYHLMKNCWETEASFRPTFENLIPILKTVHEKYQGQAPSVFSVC
T3 sequence (P23458 whole entry): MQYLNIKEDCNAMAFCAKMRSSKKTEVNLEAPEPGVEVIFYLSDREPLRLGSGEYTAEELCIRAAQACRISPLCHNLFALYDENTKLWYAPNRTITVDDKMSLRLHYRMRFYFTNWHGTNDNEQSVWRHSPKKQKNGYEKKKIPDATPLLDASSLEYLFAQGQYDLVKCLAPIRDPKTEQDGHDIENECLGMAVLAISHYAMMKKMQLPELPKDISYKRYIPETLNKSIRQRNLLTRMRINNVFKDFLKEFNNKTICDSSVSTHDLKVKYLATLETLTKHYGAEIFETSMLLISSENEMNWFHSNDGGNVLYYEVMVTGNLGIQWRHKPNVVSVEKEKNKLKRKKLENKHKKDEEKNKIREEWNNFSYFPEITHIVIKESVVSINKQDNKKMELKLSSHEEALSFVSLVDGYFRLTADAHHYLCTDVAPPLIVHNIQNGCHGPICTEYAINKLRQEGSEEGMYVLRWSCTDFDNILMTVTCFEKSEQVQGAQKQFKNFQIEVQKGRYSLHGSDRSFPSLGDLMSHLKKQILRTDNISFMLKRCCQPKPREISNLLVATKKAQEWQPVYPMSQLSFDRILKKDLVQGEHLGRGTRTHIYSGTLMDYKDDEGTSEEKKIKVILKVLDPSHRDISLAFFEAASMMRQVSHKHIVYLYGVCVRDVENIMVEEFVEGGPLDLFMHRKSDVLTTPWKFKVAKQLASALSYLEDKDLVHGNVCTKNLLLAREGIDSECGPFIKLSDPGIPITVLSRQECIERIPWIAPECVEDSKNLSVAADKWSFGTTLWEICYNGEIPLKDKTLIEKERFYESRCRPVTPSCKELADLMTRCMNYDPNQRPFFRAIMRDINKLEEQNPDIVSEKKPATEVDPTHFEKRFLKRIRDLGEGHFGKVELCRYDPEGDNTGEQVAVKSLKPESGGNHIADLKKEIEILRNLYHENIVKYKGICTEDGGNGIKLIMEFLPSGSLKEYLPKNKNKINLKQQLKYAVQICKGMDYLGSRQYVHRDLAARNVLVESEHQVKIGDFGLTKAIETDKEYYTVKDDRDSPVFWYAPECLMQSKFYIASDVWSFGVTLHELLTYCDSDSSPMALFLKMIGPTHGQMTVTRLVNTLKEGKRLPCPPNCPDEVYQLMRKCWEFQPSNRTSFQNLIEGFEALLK
T2 sequence (O60674 whole entry): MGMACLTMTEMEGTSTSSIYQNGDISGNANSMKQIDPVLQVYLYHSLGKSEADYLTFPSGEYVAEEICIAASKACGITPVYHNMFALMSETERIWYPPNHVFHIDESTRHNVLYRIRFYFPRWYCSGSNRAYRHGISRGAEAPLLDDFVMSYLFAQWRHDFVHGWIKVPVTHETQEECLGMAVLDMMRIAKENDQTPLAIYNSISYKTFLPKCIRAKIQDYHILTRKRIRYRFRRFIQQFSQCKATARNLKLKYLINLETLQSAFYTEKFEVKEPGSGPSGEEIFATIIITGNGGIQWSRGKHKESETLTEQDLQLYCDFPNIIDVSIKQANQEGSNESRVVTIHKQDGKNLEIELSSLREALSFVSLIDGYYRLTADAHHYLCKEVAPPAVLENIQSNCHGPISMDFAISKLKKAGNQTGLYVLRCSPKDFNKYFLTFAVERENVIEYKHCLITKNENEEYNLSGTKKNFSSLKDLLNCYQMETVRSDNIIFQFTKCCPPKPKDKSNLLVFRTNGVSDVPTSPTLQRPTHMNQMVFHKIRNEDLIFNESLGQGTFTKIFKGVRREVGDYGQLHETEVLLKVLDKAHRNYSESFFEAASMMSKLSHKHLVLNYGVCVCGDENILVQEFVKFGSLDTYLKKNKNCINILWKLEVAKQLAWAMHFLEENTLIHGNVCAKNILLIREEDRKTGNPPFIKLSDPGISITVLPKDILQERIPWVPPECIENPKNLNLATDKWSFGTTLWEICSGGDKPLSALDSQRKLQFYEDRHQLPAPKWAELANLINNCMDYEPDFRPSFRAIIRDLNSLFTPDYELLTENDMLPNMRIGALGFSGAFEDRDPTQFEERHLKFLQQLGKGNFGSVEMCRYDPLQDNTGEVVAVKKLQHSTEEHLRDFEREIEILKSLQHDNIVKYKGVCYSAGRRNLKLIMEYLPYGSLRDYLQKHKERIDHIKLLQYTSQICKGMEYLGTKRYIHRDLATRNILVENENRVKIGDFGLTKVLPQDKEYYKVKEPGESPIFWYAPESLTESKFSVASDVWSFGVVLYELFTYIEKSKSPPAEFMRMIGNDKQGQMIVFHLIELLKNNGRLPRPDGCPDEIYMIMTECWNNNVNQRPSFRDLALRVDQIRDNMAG

Row | Structure (SMILES) | Tall-1 (pIC50) [1, 2] | Tyk 2 (pKi) (Tyk2) | JAK 2 (pKi) (JAK2) | JAK 1 (pKi) (JAK1) | JAK 3 (pKi) (JAK3) | JAK3 (pKi)-JAK1 (pKi) (JAK3; [3]) | JAK3 (pKi)-JAK1 (pKi) (JAK3; [5]) | Ki (JAK1) [nM] | Ki (JAK3) [nM] | further results
1 | C=CC(=O)N1CCCC(Oc2nc(-c3ccc(O)cc3)cc3[nH]ncc23)C1 (stereo not drawn) [Compound 8-7] | B (a pIC50 value between 6.7 (included) and 7.5 (IC50 between 200 nM and 32 nM)) | E (a pKi value of 7 or below (Ki of 100 nM or above)) | D (a pKi value between 7 and 8 (Ki between 100 nM and 10 nM)) | E (a pKi value of 7 or below (Ki of 100 nM or above)) | B (a pKi value between 9 and 10 (Ki between 1 nM and 0.1 nM)) | A (a value of 3 or above) |  |  |  | 
2 | C=CC(=O)N1CC(OCc2cc(-c3ccc(O)c(Cl)c3)cc3[nH]ncc23)C1 [Compound 16-2] | A (a pIC50 value≥7.5 (IC50≤32 nM)) | E (a pKi value of 7 or below (Ki of 100 nM or above)) | E (a pKi value of 7 or below (Ki of 100 nM or above)) | E (a pKi value of 7 or below (Ki of 100 nM or above)) | A (a pKi value≥10 (Ki≤0.1 nM)) | A (a value of 3 or above) |  |  |  | 
3 | C=CC(=O)N1CC(F)(COc2cc(-c3ccc(O)c(F)c3)nc3[nH]ncc23)C1 [Compound 3-54] |  | E (a pKi value of 7 or below (Ki of 100 nM or above)) | E (a pKi value of 7 or below (Ki of 100 nM or above)) | E (a pKi value of 7 or below (Ki of 100 nM or above)) | B (a pKi value between 9 and 10 (Ki between 1 nM and 0.1 nM)) |  | A (a value of 3 or above) |  |  | Tall-1 (pIC50) [1, 4]: A (a pIC50 value≥7.5 (IC50≤32 nM))
4 | C=CC(=O)N1CC[C@H](COc2nc(-c3ccc(O)c(F)c3)nc3[nH]ncc23)C1 [Compound 2-15] |  | E (a pKi value of 7 or below (Ki of 100 nM or above)) | E (a pKi value of 7 or below (Ki of 100 nM or above)) | E (a pKi value of 7 or below (Ki of 100 nM or above)) | A (a pKi value≥10 (Ki≤0.1 nM)) |  | A (a value of 3 or above) |  |  | Tall-1 (pIC50) [1, 4]: B (a pIC50 value between 6.7 (included) and 7.5 (IC50 between 200 nM and 32 nM))
5 | CN(C)C/C=C/C(=O)N1CC[C@H](Oc2cc(-c3ccc(O)cc3)cc3[nH]ncc23)C1 [Compound 1-1] |  |  |  |  |  |  | A (a value of 3 or above) | > 100 | 0.1 to 1 | Ki (Tyk2; read-out: Tyk 2 (pKi) (converted)): > 100 nM; Ki (JAK2; read-out: JAK 2 (pKi) (converted)): 10 to 100 nM
6 | C=CC(=O)N1CC(C(C)Oc2nc(-c3ccc(O)cc3)nc3[nH]ncc23)C1 (stereo not drawn) [Compound 3-78] |  |  | E (a pKi value of 7 or below (Ki of 100 nM or above)) |  | B (a pKi value between 9 and 10 (Ki between 1 nM and 0.1 nM)) |  | A (a value of 3 or above) |  |  | 
7 | C=CC(=O)N1C[C@H](C(=O)Nc2cc(-c3ccc(O)cc3)cc3[nH]ncc23)OC(C)(C)C1 [Compound 12-62] |  |  |  |  |  | A (a value of 3 or above) |  | > 100 | < 0.1 | IC50 [1, 6]: 31.6 to 200 nM
8 | CN(C)C/C=C/C(=O)N1CCC(Sc2cc(-c3ccc(O)cc3)cc3[nH]ncc23)CC1 [Compound 12-5] |  |  |  |  |  | B (a value of 2.3 to 3) |  | > 100 | 0.1 to 1 | IC50 [1, 6]: 31.6 to 200 nM
9 | C=CC(=O)N1C2CCC1CC(Oc1nc(-c3ccc(O)c(Cl)c3)cc3[nH]ncc13)C2 (stereo not drawn) [Compound 9-7] | B (a pIC50 value between 6.7 (included) and 7.5 (IC50 between 200 nM and 32 nM)) |  |  | E (a pKi value of 7 or below (Ki of 100 nM or above)) | A (a pKi value≥10 (Ki≤0.1 nM)) | A (a value of 3 or above) |  |  |  | 
10 | C=CC(=O)N1CCC(COc2cc(-c3ccc(O)c(F)c3)cc3[nH]ncc23)CC1 [Compound 14-5] | A (a pIC50 value≥7.5 (IC50≤32 nM)) |  |  | D (a pKi value between 7 and 8 (Ki between 100 nM and 10 nM)) | B (a pKi value between 9 and 10 (Ki between 1 nM and 0.1 nM)) | B (a value of 2.3 to 3) |  |  |  | 
11 | C=CC(=O)N1CC[C@H](Oc2cc(-c3ccc(O)cc3)cc3[nH]nc(N(C)C)c23)C1 [Compound 1-42] |  |  |  |  |  |  | A (a value of 3 or above) | > 100 | 0.1 to 1 | IC50 ([1]; TALL-1, IL-2 stimulated pSTAT5 in Tall-1 T cells): 200 to 1000 nM
12 | C=CC(=O)N1CC(CNc2cc(-c3ccc(O)cc3)cc3[nH]ncc23)C1 [Compound 4-3] |  |  |  | E (a pKi value of 7 or below (Ki of 100 nM or above)) | B (a pKi value between 9 and 10 (Ki between 1 nM and 0.1 nM)) |  | B (a value of 2.3 to 3) |  |  | Tall-1 (pIC50) [1, 4]: B (a pIC50 value between 6.7 (included) and 7.5 (IC50 between 200 nM and 32 nM))
13 | CN(C)C/C=C/C(=O)N1CC2(CC(Oc3cc(-c4ccc(O)cc4)cc4[nH]ncc34)C2)C1 [Compound 12-52] |  |  |  |  |  | B (a value of 2.3 to 3) |  | 10 to 100 | 0.1 to 1 | IC50 [1, 6]: 200 to 1000 nM
